Results as given in patent publication US8802240B2, “Uses of formulations of thyroid hormone analogs and nanoparticulate forms thereof to increase chemosensitivity and radiosensitivity in tumor or cancer cells” (Nanopharmaceuticals LLC, priority 2011, dated 2014).
Entries after “also recorded” stand apart in the source; their conditions may differ.

How the values were obtained:
[1] = test system: chick chorioallantoic membrane (CAM) blood vessel branch points; experiment: Chick chorioallantoic membrane (CAM) model of angiogenesis; type: in vivo
Method: In vivo neovascularization was examined by methods described previously. 9-12 Ten-day-old chick embryos were purchased from SPAFAS (Preston, Conn.) and incubated at 37° C. with 55% relative humidity. A hypodermic needle was used to make a small hole in the shell concealing the air sac, and a second hole was made on the broad side of the egg, directly over an avascular portion of the embryonic membrane that was identified by candling. A false air sac was created beneath the second hole by the application of negative pressure at the first hole, causing the CAM to separate from the shell. […] Thyroid hormone, hormone analogs, FGF2 or control solvents, and inhibitors were then applied to the disks and the disks allowed to dry. The disks were then suspended in PBS and placed on growing CAMs. […] At 24 hours, the MAPK cascade inhibitor PD 98059 was also added to CAMs topically by means of the filter disks. […] The number of vessel branch points contained in a circular region equal to the area of each filter disk were counted. […] In addition, each experiment was performed 3 times. The resulting angiogenesis index is the mean±SEM of new branch points.

[2] = test system: matrigel plug angiogenesis; experiment: Mouse matrigel model of angiogenesis (plug hemoglobin); type: in vivo, mice (C57BL/6NCr)
Method: Normal male mice (C57BL/6NCr) 6-8 weeks of age and weighing ˜20 g were purchased from Taconic farm. Animals were housed 4 per cage, in controlled conditions of temperature (20-24° C.); humidity (60-70%) and 12 hrs. light/dark cycle provided with food and water ad libitum. […] Aliquots of matrigel were placed into cold polypropylene tubes to prevent the matrigel from solidifying and the angiogenesis promoter added to matrigel with or without agonist. Mice were treated daily. Matrigel was subcutaneously injected as triple injection per animal at 100 μL/animal. At day 14 post plug implant all animals were killed in CO2 chamber and matrigel plugs were collected. Plug hemoglobin content was analyzed from three implants/mice (n=6 per group) to measure angiogenesis.
The matrigel plugs dissected from the mice were carefully stripped of any remaining peritoneum. The plugs were placed into 0.5 mL tube of ddH2O and homogenized for 5-10 min. […] Absorbance was read with a Microplate Manager ELISA reader at 540 nm. […] Hemoglobin concentration is a reflection of the number of blood vessels in the plugs.

[3] = test system: human medullary carcinoma of the thyroid (MTC) xenograft; experiment: MTC xenograft in nude mice; conditions: mouse, in vivo
Excerpt: Water and food were provided ad libitum.

GL261 cells [4] = experiment: GL261 sublethal damage repair (SLDR), split dose; type: cell-based, murine
Method: SLDR was measured at 10% immediate survival level as determined from the acute single dose curve for both control and Tetrac-treated cells in both growth states (i.e. exponentially growing and plateau phase cells. Flasks were irradiated with one-half of the total dose and returned to the 37° C. incubator. At increasing periods of time, flasks were removed, and given the second half of the immediate 10% survival dose. Survival was measured at 0, 0.5, 1.0, 1.5, 2.0, 3.0, 4.0, 6.0, 8.0, and 10.0 hours after the initial dose.
(§1) To investigate the effects of Tetrac on SLDR and PLDR, cells were chosen that had been given a one-hour treatment with Tetrac at two different times, i.e., at 70 and 270 hours post-seeding).

GL261 cells [5] = experiment: GL261 potentially lethal damage repair (PLDR); type: cell-based, murine
Method: PLDR was also measured using the 10% survival level in both control and Tetrac treated-cells, and was also done for both exponentially growing and plateau phase cells. The total 10% survival dose was given, and then cells were placed back into the 37° C. incubator for various periods of time. At 0, 0.5, 1.0, 1.5, 2.0, 3.0, 4.0, 6.0, 8.0, and 10.0 hours, flasks were removed, and processed for survival assessment.
as §1

[6] = test system: U87MG human glioblastoma cells; experiment: U87MG clonogenic survival after 250 kVp single dose x-irradiation; type: cell-based
Method: To irradiate culture flasks, a Philips 250 kVp x-ray machine (Philips Corp., Fall River, Mass.) operated at 250 kVp and 15 mA with added filtration of a 0.4 mm Thoreaus filter was used. The target to source distance was 30 cm. Dose rates were measured using an R-meter (Victoreen Co., Cleveland, Ohio), and converted to absorbed (Gy) doses using appropriate temperature, pressure, and R to Gy conversion factors. The dose rate was approximately 1 Gy/min. Flasks were irradiated after being taken from a 37° C. environment and moved to the x-ray source. Movement at ambient temperature took approximately 1-2 min. Cells were next placed on ice and allowed to cool for 5 min. Lastly, flasks were placed in the Philips irradiator on top of a 2 mm thickness of Lucite which was on top of a layer of crushed ice.
The maximum time needed for irradiation of the single dose survival curve was approximately 8 min.
For SHMT analysis, data lying at or below a fractional survival (F×S) value of 0.368 were fit using a linear regression analysis of the log survival data versus linear dose. From this fit the extrapolation number (n), the quasi-threshold dose (Dq, Gy) and the inverse of the inactivation slope (Do, Gy) were derived.
For LQ analyses, survival data lying between the fractional survivals of 1.00 and 0.05 were used. The log survival data were transformed to a linear form using the relationship (−ln F×S/D) and plotted against D. A linear regression analysis was performed to yield the LQ equation along with the 95% confidence limits on the y-intercept (alpha) and the slope (beta) using a t-table with the appropriate (N−1) degrees of freedom. (See Goldstein A. Biostatistics, Academic Press, 1995.)

human cancer xenografts = conditions: in vivo; cited from earlier work

For `O=C(O)Cc1cc(I)c(Oc2cc(I)c(O)c(I)c2)c(I)c1` [Tetrac, tetraiodothyroacetic acid], the “effect on angiogenesis stimulated by T4-agarose (in words)” value ([1]; T4-agarose 0.1 μmol/L + Tetrac) was “inhibited”, the “effect on angiogenesis stimulated by T4 (in words)” value ([1]; Tetrac 0.1 μmol/L, T4 0.1 μmol/L) was “inhibited the action of T4” and the “effect of Tetrac alone on angiogenesis (in words)” value ([1]; Tetrac alone) was “had no effect on angiogenesis; also recorded: does not stimulate angiogenesis”. For the same compound, the inhibition in vivo at 10 µg/plug ([2]; Mus musculus, FGF 100 ng + test substance 10 μg/plug, numbers are Tetrac analogs of Example 13) was 90 ± 13%, the “inhibition of FGF induced angiogenesis” value ([2]; Tetrac 10 μg) was 85% and the “mortality (in words)” value [3] was “no mortality”. The “repair of x-ray damage at 6 to 8 hours post-irradiation (in words)” value (GL261 cells [4]; 2 uM, FIG. 58, control repaired by a factor of 4 to 5) was “showed no repair of x-ray damage”, the “reduction of SLDR by a factor of” value (GL261 cells [4]; exponential cells) was 1.8 and the “SLDR recovery ratio at 10 hours post-irradiation” value (GL261 cells [4]; exponential cells, two 2.50 Gy split doses, control approximately 4 to 5) was “approximately 2.2”. For the same compound, the “SLDR recovery ratio at 2 hours after the first dose” value (GL261 cells [4]; exponential cells, control approximately 2.5) was 1.8, the “survival at 3 hours after the initial dose, relative to survival at 0 hours (fixation of damage)” value (GL261 cells [4]; plateau phase cells with Tetrac) was “approximately 36%” and the “decrease in cellular repair (SLDR) by a factor of” value (GL261 cells [4]; plateau phase cells, three hours post-irradiation) was ~3. The “inhibition of PLDR by a factor of” value (GL261 cells [5]; exponential cells) was 1.9, the “decrease of PLDR expression by a factor of” value (GL261 cells [5]; plateau phase cells) was 3.4 and the “increase of α (ratio of the alpha values, sensitization factor)” value [6] was 3.6 fold. For the same compound, the “isoeffect comparison at 10% survival, ratio” value [6] was 2.2, the “ratio of relative survival values at 2 Gy” value [6] was 4.6 and the “reduction of the D0 value” [6] was 31%. For the same compound, the “β (LQ)” value ([6]; Tetrac treated cells, control 0.016 (±0.002)) was 0.076 (±0.006), the “n (SHMT)” value ([6]; Tetrac treated cells, control 2.97 (2.41-3.21)) was 1.01 (0.45-2.3) and the “sensitization factor, average of 3 comparisons” value ([6]; range of 2.2 to 4.6) was 3.5. For the same compound, the “systemic toxicity (in words)” value (human cancer xenografts) was “have not to-date shown systemic toxicity”.
